Experimental data from patent US20070259893A1, “Pyrazolopyrimidines” (BAYER CROPSCIENCE AKTIENGESELLSCHAFT, priority 2003, published 2007).

How the values were obtained:
[1] = test system: Botrytis cinerea; experiment: Botrytis test (bean)/protective; format: in vivo; conditions: bean plants, protective spray, application rate 500 g/ha, evaluated 2 days after inoculation
Description: Botrytis Test (Bean)/Protective
Solvents: 24.5 parts by weight of acetone
• 24.5 parts by weight of dimethylacetamide Emulsifier: 1.0 part by weight of alkylaryl polyglycol ether
To produce a suitable preparation of active compound, 1 part by weight of active compound is mixed with the stated amount of solvents and emulsifier, and the concentrate is diluted with water to the desired concentration.
To test for protective activity, young plants are sprayed with the preparation of active compound at the stated application rate. After the spray coating has dried on, 2 small pieces of agar colonized by Botrytis cinerea are placed onto each leaf. The inoculated plants are placed in a dark chamber at about 20° C. and 100% relative atmospheric humidity.
The size of the infected areas on the leaves is evaluated 2 days after the inoculation. 0% means an efficacy which corresponds to that of the control, whereas an efficacy of 100% means that no infection is observed.

[2] = logP by HPLC; format: physicochemical

SMILES	efficacy [1]	chromatographic logP [2]
CC1CCN(c2c(-c3ccc(F)cc3Cl)c(Cl)nc3c(C(=O)C(F)(F)F)cnn23)CC1 [Example 1, 3-trifluoroacetyl-5-chloro-6-(2-chloro-4-fluorophenyl)-7-(4-methylpiperidino)-pyrazolo[1,5-a]pyrimidine]	more than 90%	5.44
CC(Nc1c(-c2ccc(F)cc2Cl)c(Cl)nc2c(C#N)cnn12)C(C)(C)C (stereo not shown) [Example 4]		4.92
CC(C)C(C)Nc1c(-c2ccc(F)cc2Cl)c(Cl)nc2c(C(=O)C(F)(F)F)cnn12 (stereo not shown) [Example 2]		5.08
